IC50, Kd and Ki data for 18 molecules are collected here from ChEMBL document CHEMBL5723035, “Affinity Biochemical Literature for EUbOPEN Chemogenomic Library” (2024).

Non-standard residues stand in square brackets, D forms with d. Residues, ends and D or L forms follow the SMILES beside them. *: point of attachment. Tyr(3-Cl) = N[C@@H](Cc1ccc(O)c(Cl)c1)C(=O)O; Benzoyl(3,5-Cl2) = O=C(c1cc(Cl)cc(Cl)c1)*; Lys(Et2) = CCN(CC)CCCC[C@H](N)C(=O)O; Gly(cPent) = N[C@H](C(=O)O)C1CCCC1; Cbz = O=C(OCc1ccccc1)*; NH(propargyl) = C#CCN*; CH2F = FC*

In experiment [1] the target is cGMP-specific 3',5'-cyclic phosphodiesterase (Homo sapiens, UniProt O76074). Kind of experiment: Affinity Biochemical interaction: (inhibition of enzyme activity in cleaving radiolabelled substrate [3H]cGMP) EUB0002742aCl PDE5A. It is filed as functional. Further details: mode of action Inhibitor, recommended concentration 1 uM.
Experiment [2] concerns the target Poly [ADP-ribose] polymerase 1 (Homo sapiens, UniProt P09874). Kind of experiment: Affinity Biochemical interaction: (inhibition of enzyme activity) EUB0002763a PARP1. Format: functional. Further details: mode of action Inhibitor, recommended concentration 1 uM.
Experiment [3] has as its target Poly [ADP-ribose] polymerase 2 (Homo sapiens, UniProt Q9UGN5). The experiment in a line: Affinity Biochemical interaction: (inhibition of enzyme activity) EUB0002763a PARP2. Format: functional. Details: mode of action Inhibitor, recommended concentration 1 uM.
The target in experiment [4] is Ubiquitin carboxyl-terminal hydrolase 30 (Homo sapiens, UniProt Q70CQ3).
Experiment [5] addresses NAD-dependent protein deacetylase sirtuin-7 (Homo sapiens, UniProt Q9NRC8). Kind of experiment: Affinity Biochemical interaction: (inhibition of deacetylase activity, luminescence measurement using the SIRT7 assay kit) EUB0002717a SIRT7. Format: functional. Details: mode of action Inhibitor, recommended concentration 1 uM.
Experiment [6] deals with WD repeat-containing protein 5 (Homo sapiens, UniProt P61964). The experiment in a line: Affinity Biochemical interaction: (Time-resolved fluorescence energy transfer (TR-FRET) assay to determine the competitive binding affinity (Ki) against the MLL1-derived FITC-peptide probe) EUB0002769a WDR5. It is filed as functional. Further details: mode of action Inhibitor, recommended concentration 1 uM.

Experiment [7] has as its target Histone-lysine N-methyltransferase 2A (Homo sapiens, UniProt Q03164). Kind of experiment: Affinity Biochemical interaction: (H3K4 HMT inhibition assay to measure the effect on MLL1-mediated HMT activity) EUB0002769a MLL. It is filed as functional. Further details: mode of action Inhibitor, recommended concentration 1 uM.
The target of experiment [8] is sn-1-specific diacylglycerol lipase ABHD11 (Homo sapiens, UniProt Q8NFV4). Kind of experiment: Affinity Biochemical interaction: (fluorescence-based biochemical gel-based Activity-Based Protein Profiling (ABPP)) EUB0002643a ABHD11. It is filed as functional. Further details: mode of action Inhibitor, recommended concentration 1 uM.
Sequence of sn-1-specific diacylglycerol lipase ABHD11 (Q8NFV4 whole entry): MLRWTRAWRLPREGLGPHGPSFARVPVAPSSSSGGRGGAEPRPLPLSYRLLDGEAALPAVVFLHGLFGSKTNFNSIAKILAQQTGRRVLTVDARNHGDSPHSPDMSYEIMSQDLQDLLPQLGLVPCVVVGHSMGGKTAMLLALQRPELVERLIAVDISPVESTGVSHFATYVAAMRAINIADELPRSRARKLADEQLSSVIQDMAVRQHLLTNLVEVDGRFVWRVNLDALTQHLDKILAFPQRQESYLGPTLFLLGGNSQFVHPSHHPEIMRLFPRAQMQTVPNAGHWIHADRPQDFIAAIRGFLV
The target of experiment [9] is cAMP and cAMP-inhibited cGMP 3',5'-cyclic phosphodiesterase 10A (Homo sapiens, UniProt Q9Y233). The experiment in a line: Affinity Biochemical interaction: (inhibition of enzyme activity in cleaving radiolabelled substrate [3H]cAMP) EUB0002682aCl PDE10A. Further details: mode of action Inhibitor, recommended concentration 1 uM. Format: functional.
For another experiment, the target named is Cathepsin S (Homo sapiens, UniProt P25774). Kind of experiment: Affinity Biochemical interaction: (inhibition of enzyme activity in cleaving fluorogenic substrate) EUB0002791a CTSS. It is filed as functional. Details: mode of action Inhibitor, recommended concentration 1 uM.
The target of experiment [10] is Histone acetyltransferase p300 (Homo sapiens, UniProt Q09472). Kind of experiment: Affinity Biochemical interaction: (inhibition of acetyl-transferase reaction) EUB0002628aAD EP300. Details: mode of action Inhibitor, recommended concentration 1 uM. Format: functional.
Experiment [11] addresses 3',5'-cyclic-AMP phosphodiesterase 4B (Homo sapiens, UniProt Q07343). Kind of experiment: Affinity Biochemical interaction: (Inhibition of enzyme activity, scintillation proximity assay with radiolabelled [3H]cAMP) EUB0002694a PDE4B. Format: functional. Details: mode of action Inhibitor, recommended concentration 1 uM.
In experiment [12] the target is Ubiquitin carboxyl-terminal hydrolase 7 (Homo sapiens, UniProt Q93009). The experiment in a line: Affinity Biochemical interaction: (inhibition of enzyme activity in cleaving fluorogenic ubiquitin-rhodamine substrate) EUB0002755a USP7. It is filed as functional. Details: mode of action Inhibitor, recommended concentration 1 uM.
The target of experiment [13] is Ubiquitin carboxyl-terminal hydrolase 1 (Homo sapiens, UniProt O94782). The experiment in a line: Affinity Biochemical interaction: (Ubiquitin-rhodamine 110 Assay for USP1 activity) EUB0002793a USP1. Details: mode of action Inhibitor, recommended concentration 1 uM. It is filed as functional.
Sequence of Ubiquitin carboxyl-terminal hydrolase 1 (O94782 whole entry): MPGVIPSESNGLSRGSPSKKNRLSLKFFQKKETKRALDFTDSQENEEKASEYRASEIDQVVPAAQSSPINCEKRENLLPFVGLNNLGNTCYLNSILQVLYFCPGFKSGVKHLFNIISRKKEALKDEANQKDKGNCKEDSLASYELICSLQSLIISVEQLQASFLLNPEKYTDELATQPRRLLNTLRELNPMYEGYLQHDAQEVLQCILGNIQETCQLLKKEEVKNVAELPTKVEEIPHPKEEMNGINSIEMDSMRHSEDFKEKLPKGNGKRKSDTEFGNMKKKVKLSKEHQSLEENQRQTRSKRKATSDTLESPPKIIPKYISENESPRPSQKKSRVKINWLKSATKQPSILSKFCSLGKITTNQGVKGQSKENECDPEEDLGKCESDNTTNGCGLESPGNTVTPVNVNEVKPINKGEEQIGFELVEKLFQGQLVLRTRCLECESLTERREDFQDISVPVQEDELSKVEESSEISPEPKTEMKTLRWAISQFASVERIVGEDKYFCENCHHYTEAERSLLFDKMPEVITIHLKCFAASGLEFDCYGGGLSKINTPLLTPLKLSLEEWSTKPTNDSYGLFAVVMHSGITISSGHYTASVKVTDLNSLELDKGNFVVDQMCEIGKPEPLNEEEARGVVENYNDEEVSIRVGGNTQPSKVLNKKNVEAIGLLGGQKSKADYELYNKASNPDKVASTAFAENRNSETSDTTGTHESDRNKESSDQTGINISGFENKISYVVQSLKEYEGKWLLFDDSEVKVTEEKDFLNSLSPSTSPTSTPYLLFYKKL
In experiment [14] the target is Bromodomain-containing protein 4 (Homo sapiens, UniProt O60885). Kind of experiment: Affinity Biochemical interaction: (TR-FRET) EUB0002661a BRD4. Format: functional. Details: mode of action Inhibitor, recommended concentration 1 uM.
The next experiment concerns the target Menin (Homo sapiens, UniProt O00255). The experiment in a line: Affinity Biochemical interaction: (Enzymatic assay) EUB0002767a MEN1. It is filed as functional. Details: mode of action Inhibitor, recommended concentration 1 uM.
For experiment [15], the target named is T1, Chromobox protein homolog 2 (Homo sapiens, UniProt Q14781). The experiment in a line: Affinity Biochemical interaction: (Fluorescence polarisation (fluorescein conjugated)) EUB0002728a CBX2. Format: functional. Details: mode of action Inhibitor, recommended concentration 1 uM.
T1 sequence (Q14781 whole entry): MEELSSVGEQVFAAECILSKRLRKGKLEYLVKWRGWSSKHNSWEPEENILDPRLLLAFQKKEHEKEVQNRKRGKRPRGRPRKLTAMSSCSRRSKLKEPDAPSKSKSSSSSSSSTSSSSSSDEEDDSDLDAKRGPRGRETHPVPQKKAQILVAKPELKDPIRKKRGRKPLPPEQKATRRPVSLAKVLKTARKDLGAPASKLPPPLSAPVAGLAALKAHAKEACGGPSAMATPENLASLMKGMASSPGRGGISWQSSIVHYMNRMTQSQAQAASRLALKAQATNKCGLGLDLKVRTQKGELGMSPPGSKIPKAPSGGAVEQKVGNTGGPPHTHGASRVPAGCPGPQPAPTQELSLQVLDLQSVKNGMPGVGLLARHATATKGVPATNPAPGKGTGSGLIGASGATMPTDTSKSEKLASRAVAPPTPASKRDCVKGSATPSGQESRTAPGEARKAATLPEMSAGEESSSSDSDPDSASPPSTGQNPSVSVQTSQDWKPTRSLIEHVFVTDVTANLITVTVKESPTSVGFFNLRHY
The target of experiment [16] is T1, Chromobox protein homolog 2. Kind of experiment: Affinity Biochemical interaction: (thermal shift assay (non-derivatised)) EUB0002728a CBX2. Details: mode of action Inhibitor, recommended concentration 1 uM.
In experiment [17] the target is T2, Calpain-1 catalytic subunit (Homo sapiens, UniProt P07384). The experiment in a line: Affinity Biochemical interaction: (inhibition of enzyme activity using a fluorogenic substrate) EUB0002786aAD CAPN1. Format: functional. Details: mode of action Inhibitor, recommended concentration 1 uM.
T2 sequence (P07384 whole entry): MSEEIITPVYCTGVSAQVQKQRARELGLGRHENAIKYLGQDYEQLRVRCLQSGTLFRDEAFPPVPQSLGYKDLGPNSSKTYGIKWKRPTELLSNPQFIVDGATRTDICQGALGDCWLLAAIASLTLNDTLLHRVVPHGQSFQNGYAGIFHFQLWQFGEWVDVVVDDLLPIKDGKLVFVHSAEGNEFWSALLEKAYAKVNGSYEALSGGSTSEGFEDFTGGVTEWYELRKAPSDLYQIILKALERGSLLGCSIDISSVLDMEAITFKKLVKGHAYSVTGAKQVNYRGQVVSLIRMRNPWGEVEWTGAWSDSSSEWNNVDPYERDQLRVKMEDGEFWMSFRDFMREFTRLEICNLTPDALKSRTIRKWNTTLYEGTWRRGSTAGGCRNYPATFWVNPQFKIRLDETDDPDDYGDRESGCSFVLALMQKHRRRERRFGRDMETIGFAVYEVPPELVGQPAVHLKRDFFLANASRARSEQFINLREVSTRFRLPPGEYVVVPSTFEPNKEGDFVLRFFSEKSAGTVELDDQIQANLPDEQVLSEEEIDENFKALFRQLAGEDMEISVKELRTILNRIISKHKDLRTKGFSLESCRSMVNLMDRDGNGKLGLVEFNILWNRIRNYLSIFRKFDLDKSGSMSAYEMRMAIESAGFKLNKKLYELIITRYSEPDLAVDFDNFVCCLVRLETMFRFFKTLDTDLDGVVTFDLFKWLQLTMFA
Experiment [18] concerns the target T2, Calpain-1 catalytic subunit. Kind of experiment: Affinity Biochemical interaction: (inhibition of casein degradation, monitored by measuring generation of trichloroacetic acid-soluble peptides) EUB0002786aAD CAPN1. Further details: mode of action Inhibitor, recommended concentration 1 uM. It is filed as functional.
Experiment [19] has as its target Calpain-2 catalytic subunit (Homo sapiens, UniProt P17655). The experiment in a line: Affinity Biochemical interaction: (inhibition of casein degradation, monitored by measuring generation of trichloroacetic acid-soluble peptides) EUB0002786aAD CAPN2. Format: functional. Details: mode of action Inhibitor, recommended concentration 1 uM.
In a further experiment the target is Caspase-2 (Homo sapiens, UniProt P42575). Kind of experiment: Affinity Biochemical interaction: (enzymatic assay (cleavage of fluorogenic substrate)) EUB0002782a CASP2. Format: functional. Further details: mode of action Inhibitor, recommended concentration 1 uM.
Sequence of Caspase-2 (P42575 170-325 limits assumed): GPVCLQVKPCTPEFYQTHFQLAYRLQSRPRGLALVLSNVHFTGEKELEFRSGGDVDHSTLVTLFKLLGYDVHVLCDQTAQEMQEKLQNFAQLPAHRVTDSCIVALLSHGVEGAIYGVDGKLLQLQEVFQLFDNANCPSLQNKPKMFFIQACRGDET
Sequence of Caspase-2 (P42575 334-452 limits assumed): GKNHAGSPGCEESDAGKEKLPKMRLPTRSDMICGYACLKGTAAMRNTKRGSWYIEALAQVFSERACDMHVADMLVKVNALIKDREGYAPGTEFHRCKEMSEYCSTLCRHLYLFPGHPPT
The target of another experiment is Dipeptidyl peptidase 1 (Homo sapiens, UniProt P53634). The experiment in a line: Affinity Biochemical interaction: (No data available) EUB0002789aCl CTSC. Details: mode of action Inhibitor, recommended concentration 1 uM.
Sequence of Dipeptidyl peptidase 1 (P53634 25-134 limits assumed): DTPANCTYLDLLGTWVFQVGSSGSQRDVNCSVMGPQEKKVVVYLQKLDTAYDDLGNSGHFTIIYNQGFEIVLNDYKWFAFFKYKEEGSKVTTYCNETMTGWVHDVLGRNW
Sequence of Dipeptidyl peptidase 1 (P53634 231-394 limits assumed): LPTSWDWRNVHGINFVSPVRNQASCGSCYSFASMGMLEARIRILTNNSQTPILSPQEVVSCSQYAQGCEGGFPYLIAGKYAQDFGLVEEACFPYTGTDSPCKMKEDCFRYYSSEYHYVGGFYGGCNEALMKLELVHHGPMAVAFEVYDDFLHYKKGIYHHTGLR
Sequence of Dipeptidyl peptidase 1 (P53634 395-463 limits assumed): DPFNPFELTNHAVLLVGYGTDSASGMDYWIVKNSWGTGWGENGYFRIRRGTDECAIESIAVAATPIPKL

Sequence of 3',5'-cyclic-AMP phosphodiesterase 4B (Q07343 whole entry): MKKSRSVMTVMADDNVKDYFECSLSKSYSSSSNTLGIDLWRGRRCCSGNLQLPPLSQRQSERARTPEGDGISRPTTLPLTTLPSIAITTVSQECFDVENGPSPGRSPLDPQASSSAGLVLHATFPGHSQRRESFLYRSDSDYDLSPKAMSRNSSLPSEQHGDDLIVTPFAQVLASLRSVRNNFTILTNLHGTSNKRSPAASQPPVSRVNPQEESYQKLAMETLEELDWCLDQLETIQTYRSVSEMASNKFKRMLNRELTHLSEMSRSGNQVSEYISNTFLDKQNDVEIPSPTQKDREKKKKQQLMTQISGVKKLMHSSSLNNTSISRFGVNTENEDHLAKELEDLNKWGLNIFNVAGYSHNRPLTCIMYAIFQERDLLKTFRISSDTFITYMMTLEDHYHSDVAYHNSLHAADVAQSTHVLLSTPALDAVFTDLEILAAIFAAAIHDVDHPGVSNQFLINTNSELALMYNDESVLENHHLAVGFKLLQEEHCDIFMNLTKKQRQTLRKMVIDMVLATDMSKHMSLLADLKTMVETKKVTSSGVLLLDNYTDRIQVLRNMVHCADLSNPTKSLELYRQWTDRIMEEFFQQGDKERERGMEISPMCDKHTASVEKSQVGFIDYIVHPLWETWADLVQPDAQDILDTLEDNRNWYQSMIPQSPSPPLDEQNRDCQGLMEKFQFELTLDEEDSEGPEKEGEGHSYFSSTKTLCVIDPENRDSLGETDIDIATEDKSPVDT
Sequence of NAD-dependent protein deacetylase sirtuin-7 (Q9NRC8 whole entry): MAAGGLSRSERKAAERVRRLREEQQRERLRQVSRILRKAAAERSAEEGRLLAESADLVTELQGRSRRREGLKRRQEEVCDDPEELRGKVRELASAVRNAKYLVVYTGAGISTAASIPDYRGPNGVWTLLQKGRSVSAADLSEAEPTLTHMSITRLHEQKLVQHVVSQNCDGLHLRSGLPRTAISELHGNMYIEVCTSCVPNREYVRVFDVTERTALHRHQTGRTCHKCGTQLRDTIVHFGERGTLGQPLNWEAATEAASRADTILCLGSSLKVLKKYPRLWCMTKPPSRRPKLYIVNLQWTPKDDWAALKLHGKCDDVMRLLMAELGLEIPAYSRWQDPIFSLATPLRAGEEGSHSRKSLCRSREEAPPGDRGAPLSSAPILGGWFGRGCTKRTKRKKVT
Sequence of Menin (O00255 whole entry): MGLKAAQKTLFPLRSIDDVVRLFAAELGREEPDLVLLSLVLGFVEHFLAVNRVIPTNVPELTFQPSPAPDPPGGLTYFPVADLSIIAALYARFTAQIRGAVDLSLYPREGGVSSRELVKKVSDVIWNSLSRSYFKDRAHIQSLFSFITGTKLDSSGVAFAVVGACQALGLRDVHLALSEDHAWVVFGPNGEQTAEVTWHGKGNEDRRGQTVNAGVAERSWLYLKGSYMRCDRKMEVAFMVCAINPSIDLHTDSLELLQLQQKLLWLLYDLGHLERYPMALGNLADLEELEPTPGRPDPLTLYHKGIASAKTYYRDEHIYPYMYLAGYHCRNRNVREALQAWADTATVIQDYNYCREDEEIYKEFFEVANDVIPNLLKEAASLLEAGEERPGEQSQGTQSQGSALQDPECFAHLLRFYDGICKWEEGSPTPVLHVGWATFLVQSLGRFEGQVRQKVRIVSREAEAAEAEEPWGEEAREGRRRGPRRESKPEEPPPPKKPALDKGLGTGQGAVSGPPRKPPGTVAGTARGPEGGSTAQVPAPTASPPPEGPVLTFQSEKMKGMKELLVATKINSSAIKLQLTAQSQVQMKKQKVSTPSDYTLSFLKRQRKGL

As for `CCn1c(=S)[nH]c2cc3c(NCc4ccccc4N4CCC(CO)CC4)ncnc3cc21`, the half-maximal inhibitory concentration (IC50) in [1] turned out to be 0.074 nM.
As to `O=C(c1cc(Cc2n[nH]c(=O)c3ccccc23)ccc1F)N1CC(CNC2CC2)C1`, the IC50 in experiment [2] was 1.4 nM; in [3] it was 1 nM.
Turning to `COc1ccc(-c2csc(N(C)C(=O)[C@@H]3CCCN3C#N)n2)nc1C#N`, the 50% inhibitory concentration (IC50) in [4] was < 100 nM.
With `Nc1cccc(Nc2ncc(-c3ccc(Cl)cc3)o2)c1`, the IC50 in experiment [5] is 325 nM.
Turning to `COc1cc(O)cc(CN2CCc3c(cc(Cn4ccn(C)c4=N)cc3-c3ccc(F)cc3C)C2=O)c1`, the dissociation constant (Kd) in experiment [6] was < 0.02 nM. The molecule also returned an IC50 in experiment [7] of 2.2 nM.
On to `CCC1CCCCN1C(=O)n1ncc(C(O)(c2ccccc2)c2ccccc2)n1` (stereo not drawn), for which, in experiment [8], the midpoint of inhibition, the IC50, lay at 15 nM.
In turn, `Cc1ccc2c(c1)nc(/C=C/c1cccc3cccnc13)n2-c1cccc(OCCCN2CCN(C)CC2)c1` came in with a half-maximal inhibitory concentration (IC50) in experiment [9] of 2.8 nM.
For `CC(F)(F)C(=O)N[C@@H](CC1(F)CCCC1)C(=O)NC1(C(=O)C(N)=O)CCC1`, the Ki on Cathepsin S worked out at 2.1 nM.
For the molecule `CC(=O)N[C@@H](CCCCNC(=O)CSCCNC(=O)CCNC(=O)[C@H](O)C(C)(C)COP(=O)(O)OP(=O)(O)OC[C@H]1O[C@@H](n2cnc3c(N)ncnc32)[C@H](O)[C@@H]1OP(=O)(O)O)C(N)=O`, the IC50 in [10] was ~50 nM.
As for `N#Cc1ccc(-c2c3n(c4cccnc24)CCN(C2CC2)C3=O)cc1F` [PF-06445974], in experiment [11], the 50% inhibitory concentration (IC50) was < 1 nM.
Molecule `Cc1cc(Cl)cc(-c2c3sc(CN4C(=O)C5C(C4=O)C5(C)C)cc3nn2C)c1OC1CCNCC1` (stereo not drawn) showed an IC50 in [12] of 13.4 nM.
As to `CC(C)c1c(F)cccc1-c1ncc2[nH]c(=O)n(Cc3ccc(-c4nc(C(F)(F)F)cn4C)cc3)c2n1`, the IC50 in experiment [13] was < 50 nM.
On to `Cc1nnn(C)c1-c1cnc2c3cc4cnn(C)c4cc3n([C@H](c3ccccc3)C3CCOCC3)c2c1`, for which the IC50 in experiment [14] worked out at 2.7 nM.
The molecule `CC(C)N(C(=O)c1cc(F)ccc1Oc1cncnc1N1CC2(CCN(C[C@H]3CC[C@H](NS(C)(=O)=O)CC3)CC2)C1)C(C)C` had a Ki at Menin of 0.104 nM.
As to `C#CCNC(=O)[C@H](CO)NC(=O)[C@H](CCCCN(CC)CC)NC(=O)[C@@H](NC(=O)[C@@H](NC(=O)[C@H](Cc1ccc(O)c(Cl)c1)NC(=O)c1cc(Cl)cc(Cl)c1)C1CCCC1)[C@@H](C)CC` ({Benzoyl(3,5-Cl2)}-[Tyr(3-Cl)][Gly(cPent)]I[Lys(Et2)]S-{NH(propargyl)}), the Kd in [15] amounted to 80 nM; in [16] it was 110 nM.
For `CC[C@H](C)[C@H](NC(=O)[C@H](Cc1ccc(O)cc1)NC(=O)[C@@H](NC(=O)[C@H](CO)NC(=O)[C@H](CO)NC(=O)[C@H](CCSC)NC(=O)[C@@H]1CCCN1C(=O)[C@H](CC(=O)O)NC(C)=O)[C@@H](C)O)C(=O)N[C@@H](CCC(=O)O)C(=O)N[C@@H](CCC(=O)O)C(=O)N[C@@H](CC(C)C)C(=O)NCC(=O)N[C@@H](CCCCN)C(=O)N[C@@H](CCCNC(=N)N)C(=O)N[C@@H](CCC(=O)O)C(=O)N[C@H](C(=O)N[C@H](C(=O)N[C@H](C(=O)N1CCC[C@H]1C(=O)N1CCC[C@H]1C(=O)N[C@@H](CCCCN)C(=O)N[C@@H](Cc1ccc(O)cc1)C(=O)N[C@@H](CCCNC(=N)N)C(=O)N[C@@H](CCC(=O)O)C(=O)N[C@@H](CC(C)C)C(=O)N[C@@H](CC(C)C)C(=O)N[C@@H](C)C(N)=O)[C@@H](C)CC)[C@@H](C)O)C(C)C` (Ac-DPMSSTYIEELGKREVTIPPKYRELLA-NH2), affinity in experiment [17] was put at a Ki of 0.2 nM. Also, the IC50 in experiment [18] is ~60 nM; in experiment [19], ~30 nM.
As for `COC(=O)CC(NC(=O)C(C)NC(=O)C(NC(=O)C(CC(=O)OC)NC(=O)C(NC(=O)OCc1ccccc1)C(C)C)C(C)C)C(=O)CF` (stereo not drawn) (Cbz-VD(OMe)VAD(OMe)-CH2F; configuration not given here), the half-inhibitory concentration (IC50) against Caspase-2 is ~80 nM.
On to `CC[C@@H](/C=C/C(=O)N1CCc2ccccc21)NC(=O)C1(N)CCOCC1`, for which the half-inhibitory concentration (IC50) on Dipeptidyl peptidase 1 was < 0.43 nM.
